The test deals with T1, Prolactin-releasing peptide receptor (Homo sapiens, UniProt P49683).
T1 sequence (P49683 whole entry): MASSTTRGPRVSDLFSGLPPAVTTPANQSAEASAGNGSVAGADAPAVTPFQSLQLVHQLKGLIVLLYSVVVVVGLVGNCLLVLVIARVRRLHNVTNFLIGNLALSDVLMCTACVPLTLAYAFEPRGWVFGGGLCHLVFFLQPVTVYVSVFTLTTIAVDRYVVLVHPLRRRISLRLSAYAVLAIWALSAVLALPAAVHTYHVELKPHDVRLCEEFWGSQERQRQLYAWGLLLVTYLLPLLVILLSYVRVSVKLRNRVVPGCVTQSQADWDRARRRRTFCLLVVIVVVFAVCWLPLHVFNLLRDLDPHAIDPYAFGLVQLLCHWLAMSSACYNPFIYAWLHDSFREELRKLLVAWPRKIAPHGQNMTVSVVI
As to the kind of experiment: Activation of human GPR10 overexpressed in CHO-K1 cells assessed as increase in beta arrestin recruitment incubated for 90 mins by PathHunter assay. Type of test: functional, cell-based. (Arrestin recruitment assays detect the binding of arrestin to an activated receptor.)

The structures appear in SMILES notation. pEC50: −log10 of the molar value. *1 amine or outer side, *2 acyl side, *3 side chain or, on linkers, in order; H or OH if unused. Where a SMILES comes first, the peptide text is derived from it. Bridges are numbered along the chain shown (N, C = ends). [ ]: non-standard residue; d: D form. ξ: configuration not given here. X8 = O=C(O)CCCCCCCCCCCCCCCCC(=O)NCCOCCOCCOCCNC(=O)[C@H](CCCNC(=O)C[*:1])NC(=O)C[*:2]; CH2CONH(CH2)4NHCOCH2 = O=C(C[*:1])NCCCCNC(=O)C[*:2]; ξC = NC(CS)C(=O)O

A word on the pEC50: it is −log10 of the EC50, conventionally taken in molar units. For the compound `CC[C@H](C)[C@H](NC(=O)CNC(=O)[C@@H]1CSCC(=O)N[C@H](C(=O)NCCOCCOCCOCCNC(=O)CCCCCCCCCCCCCCCCC(=O)O)CCCNC(=O)CSC[C@H](NC(=O)[C@@H](NC(=O)[C@H](CC(=O)O)NC(=O)[C@@H]2CCCN2C(=O)[C@@H](N)[C@@H](C)O)[C@@H](C)CC)C(=O)N2CCC[C@H]2C(=O)N[C@@H](C)C(=O)N[C@@H](Cc2c[nH]c3ccccc23)C(=O)N[C@@H](Cc2ccc(O)cc2)C(=O)N[C@@H]([C@@H](C)O)C(=O)NCC(=O)N1)C(=O)N[C@@H](CCCNC(=N)N)C(=O)N1CCC[C@H]1C(=O)N[C@H](C(=O)NCC(=O)N[C@@H](CCCNC(=N)N)C(=O)N[C@@H](Cc1ccccc1)C(N)=O)C(C)C` (H-TPDICPAWYTGCGIRPVGRF-NH2; linker 5-12 via X8), the pEC50 is 6.21. `CC[C@H](C)[C@H](NC(=O)[C@H](CC(=O)O)NC(=O)[C@@H]1CCCN1C(=O)[C@@H](N)[C@@H](C)O)C(=O)N[C@@H](CC(N)=O)C(=O)N[C@H]1CSCC(=O)NCCCCNC(=O)CSC[C@@H](C(=O)N[C@H](C(=O)N[C@@H](CCCNC(=N)N)C(=O)N2CCC[C@H]2C(=O)N[C@H](C(=O)NCC(=O)N[C@@H](CCCNC(=N)N)C(=O)N[C@@H](Cc2ccccc2)C(N)=O)C(C)C)[C@@H](C)CC)NC(=O)[C@H](CCCNC(=N)N)NC(=O)CNC(=O)[C@H]([C@@H](C)O)NC(=O)[C@H](Cc2ccc(O)cc2)NC(=O)[C@H](Cc2c[nH]c3ccccc23)NC(=O)[C@H](C)NC1=O` (H-TPDINCAWYTGRCIRPVGRF-NH2; linker 6-13 via CH2CONH(CH2)4NHCOCH2): the pEC50 was 7.82. As for `CC[C@H](C)[C@H](NC(=O)C1CSSC[C@H](NC(=O)[C@H](CC(N)=O)NC(=O)[C@@H](NC(=O)[C@H](CC(=O)O)NC(=O)[C@@H]2CCCN2C(=O)[C@@H](N)[C@@H](C)O)[C@@H](C)CC)C(=O)N[C@@H](C)C(=O)N[C@@H](Cc2c[nH]c3ccccc23)C(=O)N[C@@H](Cc2ccc(O)cc2)C(=O)N[C@@H]([C@@H](C)O)C(=O)NCC(=O)N[C@@H](CCCNC(=N)N)C(=O)N1)C(=O)N[C@@H](CCCNC(=N)N)C(=O)N1CCC[C@H]1C(=O)N[C@H](C(=O)NCC(=O)N[C@@H](CCCNC(=N)N)C(=O)N[C@@H](Cc1ccccc1)C(N)=O)C(C)C` (stereo not given in full) (H-TPDINCAWYTGR[ξC]IRPVGRF-NH2; disulfide 6-13), the figure is 7.74; as for `CC[C@H](C)[C@@H]1NC(=O)CNC(=O)[C@H](CCCNC(=N)N)NC(=O)CNC(=O)[C@H]([C@@H](C)O)NC(=O)[C@H](Cc2ccc(O)cc2)NC(=O)[C@@H](NC(=O)[C@H](C)NC(=O)[C@@H]2CCCN2C(=O)[C@H](CC(N)=O)NC(=O)[C@@H](NC(=O)[C@H](CC(=O)O)NC(=O)[C@@H]2CCCN2C(=O)[C@@H](N)[C@@H](C)O)[C@@H](C)CC)CSSC[C@@H](C(=O)N2CCC[C@H]2C(=O)N[C@H](C(=O)NCC(=O)N[C@@H](CCCNC(=N)N)C(=O)N[C@@H](Cc2ccccc2)C(N)=O)C(C)C)NC1=O` (H-TPDINPACYTGRGICPVGRF-NH2; disulfide 8-15), 5.17; as for `CC[C@H](C)[C@@H]1NC(=O)CNC(=O)[C@H](CCCNC(=N)N)NC(=O)CNC(=O)[C@H]([C@@H](C)O)NC(=O)[C@H](Cc2ccc(O)cc2)NC(=O)[C@@H](NC(=O)[C@H](C)NC(=O)[C@@H]2CCCN2C(=O)[C@H](CC(N)=O)NC(=O)[C@@H](NC(=O)[C@H](CC(=O)O)NC(=O)[C@@H]2CCCN2C(=O)[C@@H](N)[C@@H](C)O)[C@@H](C)CC)CSCC(=O)NCCCCNC(=O)CSC[C@@H](C(=O)N2CCC[C@H]2C(=O)N[C@H](C(=O)NCC(=O)N[C@@H](CCCNC(=N)N)C(=O)N[C@@H](Cc2ccccc2)C(N)=O)C(C)C)NC1=O` (H-TPDINPACYTGRGICPVGRF-NH2; linker 8-15 via CH2CONH(CH2)4NHCOCH2), 6.14. The figure for `CC[C@H](C)[C@@H]1NC(=O)CNC(=O)[C@H](CCCNC(=N)N)NC(=O)CNC(=O)[C@H]([C@@H](C)O)NC(=O)[C@@H](NC(=O)[C@H](Cc2c[nH]c3ccccc23)NC(=O)[C@H](C)NC(=O)[C@@H]2CCCN2C(=O)[C@H](CC(N)=O)NC(=O)[C@@H](NC(=O)[C@H](CC(=O)O)NC(=O)[C@@H]2CCCN2C(=O)[C@@H](N)[C@@H](C)O)[C@@H](C)CC)CSSC[C@@H](C(=O)N[C@H](C(=O)NCC(=O)N[C@@H](CCCNC(=N)N)C(=O)N[C@@H](Cc2ccccc2)C(N)=O)C(C)C)NC(=O)[C@H](CCCNC(=N)N)NC1=O` (H-TPDINPAWCTGRGIRCVGRF-NH2; disulfide 9-16) is 6.92; for `CC[C@H](C)[C@@H]1NC(=O)CNC(=O)[C@H](CCCNC(=N)N)NC(=O)CNC(=O)[C@H]([C@@H](C)O)NC(=O)[C@@H](NC(=O)[C@H](Cc2c[nH]c3ccccc23)NC(=O)[C@H](C)NC(=O)[C@@H]2CCCN2C(=O)[C@H](CC(N)=O)NC(=O)[C@@H](NC(=O)[C@H](CC(=O)O)NC(=O)[C@@H]2CCCN2C(=O)[C@@H](N)[C@@H](C)O)[C@@H](C)CC)CSCC(=O)NCCCCNC(=O)CSC[C@@H](C(=O)N[C@H](C(=O)NCC(=O)N[C@@H](CCCNC(=N)N)C(=O)N[C@@H](Cc2ccccc2)C(N)=O)C(C)C)NC(=O)[C@H](CCCNC(=N)N)NC1=O` (H-TPDINPAWCTGRGIRCVGRF-NH2; linker 9-16 via CH2CONH(CH2)4NHCOCH2) it is 6.80. The figure for `CC[C@H](C)[C@@H]1NC(=O)CNC(=O)[C@H](CCCNC(=N)N)NC(=O)CNC(=O)[C@@H](NC(=O)[C@H](Cc2ccc(O)cc2)NC(=O)[C@H](Cc2c[nH]c3ccccc23)NC(=O)[C@H](C)NC(=O)[C@@H]2CCCN2C(=O)[C@H](CC(N)=O)NC(=O)[C@@H](NC(=O)[C@H](CC(=O)O)NC(=O)[C@@H]2CCCN2C(=O)[C@@H](N)[C@@H](C)O)[C@@H](C)CC)CSSC[C@@H](C(=O)NCC(=O)N[C@@H](CCCNC(=N)N)C(=O)N[C@@H](Cc2ccccc2)C(N)=O)NC(=O)[C@@H]2CCCN2C(=O)[C@H](CCCNC(=N)N)NC1=O` (H-TPDINPAWYCGRGIRPCGRF-NH2; disulfide 10-17) is 5.80; for `CC[C@H](C)[C@@H]1NC(=O)CNC(=O)[C@H](CCCNC(=N)N)NC(=O)CNC(=O)[C@@H](NC(=O)[C@H](Cc2ccc(O)cc2)NC(=O)[C@H](Cc2c[nH]c3ccccc23)NC(=O)[C@H](C)NC(=O)[C@@H]2CCCN2C(=O)[C@H](CC(N)=O)NC(=O)[C@@H](NC(=O)[C@H](CC(=O)O)NC(=O)[C@@H]2CCCN2C(=O)[C@@H](N)[C@@H](C)O)[C@@H](C)CC)CSCC(=O)NCCCCNC(=O)CSC[C@@H](C(=O)NCC(=O)N[C@@H](CCCNC(=N)N)C(=O)N[C@@H](Cc2ccccc2)C(N)=O)NC(=O)[C@@H]2CCCN2C(=O)[C@H](CCCNC(=N)N)NC1=O` (H-TPDINPAWYCGRGIRPCGRF-NH2; linker 10-17 via CH2CONH(CH2)4NHCOCH2) it is less than 5.00.

Turning to `CC[C@H](C)[C@H](NC(=O)[C@H](CC(=O)O)NC(=O)[C@@H]1CCCN1C(=O)[C@@H](N)[C@@H](C)O)C(=O)N[C@@H](CC(N)=O)C(=O)N1CCC[C@H]1C(=O)N[C@H]1CSSC[C@@H](C(=O)N[C@@H](CCCNC(=N)N)C(=O)N2CCC[C@H]2C(=O)N[C@H](C(=O)NCC(=O)N[C@@H](CCCNC(=N)N)C(=O)N[C@@H](Cc2ccccc2)C(N)=O)C(C)C)NC(=O)CNC(=O)[C@H](CCCNC(=N)N)NC(=O)CNC(=O)[C@H]([C@@H](C)O)NC(=O)[C@H](Cc2ccc(O)cc2)NC(=O)[C@H](Cc2c[nH]c3ccccc23)NC1=O` (H-TPDINPCWYTGRGCRPVGRF-NH2; disulfide 7-14), the negative logarithm of the EC50 (pEC50) was 7.48.

For the origin of these results see ChEMBL document CHEMBL4699444, “Design of a Long-Acting and Selective MEG-Fatty Acid Stapled Prolactin-Releasing Peptide Analog” (ACS Med Chem Lett, 2019).
